Laboratory results: patent US10913738B2 (BRISTOL-MYERS SQUIBB COMPANY, priority 2017, dated 2021)
Read-outs that look alike come from different tables or passages of the source.

What was measured:
[1] = target: T1, His-GST-TVMV-hRIPK1(1-324) (Homo sapiens, UniProt Q13546); assay: RIPK1 HTRF Binding Assay
T1 construct: The coding region of human RIPK1(1-324) flanked by NdeI site at 5′ end; made in house; host or cells: Spodoptera frugiperda (Sf9) insect cells, baculovirus
T1 sequence (Q13546 1-324): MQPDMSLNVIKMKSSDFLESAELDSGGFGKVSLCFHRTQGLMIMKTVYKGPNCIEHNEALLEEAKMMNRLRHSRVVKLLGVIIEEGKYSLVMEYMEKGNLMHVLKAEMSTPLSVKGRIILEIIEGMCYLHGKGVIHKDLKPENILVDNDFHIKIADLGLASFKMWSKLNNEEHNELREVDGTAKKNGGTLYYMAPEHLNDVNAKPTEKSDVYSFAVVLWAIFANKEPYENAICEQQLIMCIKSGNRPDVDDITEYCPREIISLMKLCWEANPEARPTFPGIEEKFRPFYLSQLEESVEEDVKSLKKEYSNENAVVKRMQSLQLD

[2] = system: MLKL phosphorylation in HT29-L23 human colorectal adenocarcinoma cells; assay: MLKL Phosphorylation High-Content Assay; assay type: cell-based; conditions: Homo sapiens
Procedure, shortened: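 IC50 and Ymax obtained by 4-parameter logistic fitting of MLKL phosphorylation, measured as mean circ-ring average intensity ratio from high-content images. Staining used an anti-phospho-S358 MLKL antibody overnight at 4° C., following six-hour cell incubation at 37° C.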

[3] = x marks IC50 class <20 nM, read-out: RIPK1 HTRF binding <20 nM
[4] = x marks IC50 class <20 nM, read-out: pMLKL cell activity <20 nM
[5] = x marks IC50 class 20-200 nM, read-out: RIPK1 HTRF binding 20-200 nM
[6] = x marks IC50 class >200 nM, read-out: pMLKL cell activity >200 nM
[7] = x marks IC50 class 20-200 nM, read-out: pMLKL cell activity 20-200 nM

Compound | IC50 [1, 3] [nM] | IC50 [2, 4] [nM] | IC50 [1, 5] [nM] | IC50 [2, 6] [nM] | IC50 [2, 7] [nM]
CCOc1ncc(-c2ccn3nc(N)nc3c2)cc1C(=O)NCc1ccccc1Oc1ccccc1 [Example 277, 5-{2-amino-[1,2,4]triazolo[1,5-a]pyridin-7-yl}-2-ethoxy-N-[(2-phenoxyphenyl)methyl]pyridine-3-carboxamide] | < 20 | < 20 |  |  | 
CCOc1ncc(-c2ccn3nc(N)nc3c2)cc1C(=O)NCC[C@H](O)c1ccc(Cl)cc1 [Example 278, 5-{2-amino-[1,2,4]triazolo[1,5-a]pyridin-7-yl}-N-[(3S)-3-(4-chlorophenyl)-3-hydroxypropyl]-2-ethoxypyridine-3-carboxamide] |  |  | 20 to 200 | > 200 | 
CCOc1ncc(-c2ccn3nc(N)nc3c2)cc1C(=O)Nc1cnn(Cc2ccccc2)c1 [Example 279, 5-{2-amino-[1,2,4]triazolo[1,5-a]pyridin-7-yl}-N-(1-benzyl-1H-pyrazol-4-yl)-2-ethoxypyridine-3-carboxamide] |  |  | 20 to 200 |  | 20 to 200
CCOc1ncc(-c2ccn3nc(N)nc3c2)cc1C(=O)NCCC(C)c1ccccc1 (centres unmarked) [Example 280, 5-{2-amino-[1,2,4]triazolo[1,5-a]pyridin-7-yl}-2-ethoxy-N-(3-phenylbutyl)pyridine-3-carboxamide] | < 20 |  |  |  | 20 to 200
CCOc1ncc(-c2ccn3nc(N)nc3c2)cc1C(=O)NCc1cc(F)cc(F)c1OCC1CC1 [Example 281, 5-{2-amino-[1,2,4]triazolo[1,5-a]pyridin-7-yl}-N-{[2-(cyclopropylmethoxy)-3,5-difluorophenyl]methyl}-2-ethoxypyridine-3-carboxamide] | < 20 |  |  |  | 20 to 200
[2H]C([2H])([2H])Oc1nc(C)c(-c2ccn3nc(N)nc3c2)cc1C(=O)NCc1cc(F)cc(F)c1OC([2H])([2H])C1CC1 [Example 282, 5-(2-Amino-[1,2,4]triazolo[1,5-a]pyridin-7-yl)-N-(2-(cyclopropylmethoxy-d2)-3,5-difluorobenzyl)-2-(methoxy-d3)-6-methylnicotinamide] | < 20 | < 20 |  |  | 
[2H]C([2H])([2H])Oc1ncc(-c2ccn3nc(N)nc3c2)cc1C(=O)NCc1cc(F)cc(F)c1OC([2H])([2H])C1CC1 [Example 283, 5-(2-amino-[1,2,4]triazolo[1,5-a]pyridin-7-yl)-N-(2-(cyclopropylmethoxy-d2)-3,5-difluorobenzyl)-2-(methoxy-H3)nicotinamide] | < 20 | < 20 |  |  | 
[2H]C([2H])([2H])Oc1ncc(-c2ccn3nc(N)nc3c2)cc1C(=O)NC([2H])([2H])c1cc(C(F)(F)F)ccc1F [Example 284, 5-(2-amino-[1,2,4]triazolo[1,5-a]pyridin-7-yl)-N-((2-fluoro-5-(trifluoromethyl)phenyl)methyl-d2)-2-(methoxy-d3)nicotinamide] | < 20 |  |  |  | 20 to 200
[2H]C([2H])([2H])Oc1ncc(-c2ccn3nc(N)nc3c2)cc1C(=O)N[C@H](C)c1cc(OC(F)(F)F)ccc1F [Example 285, (R)-5-(2-amino-[1,2,4]triazolo[1,5-a]pyridin-7-yl)-N-(1-(2-fluoro-5-(trifluoromethoxy)phenyl)ethyl)-2-(methoxy-d3)nicotinamide] |  |  | 20 to 200 |  | 20 to 200
[2H]C([2H])([2H])[C@@H](NC(=O)c1cc(-c2ccn3nc(N)nc3c2)c(C)nc1C)c1cc(OC(F)(F)F)ccc1F [Example 286, (R)-5-(2-amino-[1,2,4]triazolo[1,5-a]pyridin-7-yl)-N-(1-(2-fluoro-5-(trifluoromethoxy)phenyl)ethyl-2,2,2-d3)-2,6-dimethylnicotinamide] | < 20 |  |  |  | 20 to 200
[2H]C([2H])(Oc1c(F)cc(F)cc1CNC(=O)c1cc(-c2ccn3nc(N)nc3c2)c(C)nc1C)C1CC1 [Example 287, 5-(2-amino-[1,2,4]triazolo[1,5-a]pyridin-7-yl)-N-(2-(cyclopropylmethoxy-d2)-3,5-difluorobenzyl)-2,6-dimethylnicotinamide] | < 20 | < 20 |  |  | 
[2H]C([2H])(NC(=O)c1cc(-c2ccn3nc(N)nc3c2)c(C)nc1C)c1cc(C(F)(F)F)ccc1F [Example 288, 5-(2-amino-[1,2,4]triazolo[1,5-a]pyridin-7-yl)-N-((2-fluoro-5-(trifluoromethyl)phenyl)methyl-d2)-2,6-dimethylnicotinamide] | < 20 |  |  |  | 20 to 200
[2H]C([2H])([2H])[C@@H](NC(=O)c1cc(-c2ccn3nc(N)nc3c2)c(C)nc1C)c1cc(C(F)(F)F)ccc1F [Example 289, (R)-5-(2-amino-[1,2,4]triazolo[1,5-a]pyridin-7-yl)-N-(l-(2-fluoro-5-(trifluoromethyl)phenyl)ethyl-2,2,2-d3)-2,6-dimethylnicotinamide] | < 20 |  |  |  | 20 to 200
Cc1nc(C)c(-c2ccn3nc(N)nc3c2)cc1C(=O)NCc1cc(OCC2CC2)ccc1F [Example 290, 5-(2-amino-[1,2,4]triazolo[1,5-a]pyridin-7-yl)-N-(5-(cyclopropylmethoxy)-2-fluorobenzyl)-2,6-dimethylnicotinamide] | < 20 |  |  |  | 20 to 200
Cc1nc(C)c(-c2ccn3nc(N)nc3c2)cc1C(=O)NCc1c(F)cccc1OCC(F)(F)F [Example 291, 5-(2-amino-[1,2,4]triazolo[1,5-a]pyridin-7-yl)-N-(2-fluoro-6-(2,2,2-trifluoroethoxy)benzyl)-2,6-dimethylnicotinamide] |  |  | 20 to 200 |  | 20 to 200
Cc1nc(C)c(-c2ccn3nc(N)nc3c2)cc1C(=O)NCc1cc(F)ccc1OCC(F)(F)F [Example 292, 5-(2-amino-[1,2,4]triazolo[1,5-a]pyridin-7-yl)-N-(5-fluoro-2-(2,2,2-trifluoroethoxy)benzyl)-2,6-dimethylnicotinamide] |  |  | 20 to 200 |  | 20 to 200
Cc1nc(C)c(-c2ccn3nc(N)nc3c2)cc1C(=O)NCc1cccc(OCC(F)(F)F)c1 [Example 293, 5-(2-amino-[1,2,4]triazolo[1,5-a]pyridin-7-yl)-2,6-dimethyl-N-(3-(2,2,2-trifluoroethoxy)benzyl)nicotinamide] |  |  | 20 to 200 |  | 20 to 200
Cc1nc(C)c(-c2ccn3nc(N)nc3c2)cc1C(=O)NCc1ccccc1OCC(F)(F)F [Example 294, 5-(2-amino-[1,2,4]triazolo[1,5-a]pyridin-7-yl)-2,6-dimethyl-N-(2-(2,2,2-trifluoroethoxy)benzyl)nicotinamide] |  |  | 20 to 200 | > 200 | 
Cc1nc(C)c(-c2ccn3nc(N)nc3c2)cc1C(=O)NCc1cc(F)cc(F)c1OC1CCOC(C)C1 (centres unmarked) [Example 296, 5-(2-amino-[1,2,4]triazolo[1,5-a]pyridin-7-yl)-N-(3,5-difluoro-2-((2-methyltetrahydro-2H-pyran-4-yl)oxy)benzyl)-2,6-dimethylnicotinamide] |  |  | 20 to 200 |  | 20 to 200
Cc1nc(C)c(-c2ccn3nc(N)nc3c2)cc1C(=O)NCc1cc(F)cc(F)c1OC1CC(C)OC(C)C1 (centres unmarked) [Example 297, 5-(2-amino-[1,2,4]triazolo[1,5-a]pyridin-7-yl)-N-(2-((2,6-dimethyltetrahydro-2H-pyran-4-yl)oxy)-3,5-difluorobenzyl)-2,6-dimethylnicotinamide] |  |  | 20 to 200 |  | 20 to 200
Cc1ncc(-c2ccn3nc(N)nc3c2)cc1C(=O)NCc1cc(F)ccc1-c1ccn(C)n1 [Example 298, 5-(2-amino-[1,2,4]triazolo[1,5-a]pyridin-7-yl)-N-(5-fluoro-2-(1-methyl-1H-pyrazol-3-yl)benzyl)-2-methylnicotinamide] |  |  | 20 to 200 | > 200 | 
[2H]C([2H])([2H])[C@@H](NC(=O)c1cc(-c2ccn3nc(N)nc3c2)cnc1C)c1cc(OC(F)(F)F)ccc1F [Example 299, (R)-5-(2-amino-[1,2,4]triazolo[1,5-a]pyridin-7-yl)-N-(1-(2-fluoro-5-(trifluoromethoxy)phenyl)ethyl-2,2,2-d3)-2-methylnicotinamide] | < 20 | < 20 |  |  | 
[2H]C([2H])([2H])[C@H](NC(=O)c1cc(-c2ccn3nc(N)nc3c2)cnc1C)c1cc(OC(F)(F)F)ccc1F [Example 300, (S)-5-(2-amino-[1,2,4]triazolo[1,5-a]pyridin-7-yl)-N-(1-(2-fluoro-5-(trifluoromethoxy)phenyl)ethyl-2,2,2-H3)-2-methylnicotinamide] | < 20 | < 20 |  |  | 
Cc1ncc(-c2ccn3nc(N)nc3c2)cc1C(=O)NCc1cc(F)cc(F)c1OCC(C)C [Example 301, 5-(2-amino-[1,2,4]triazolo[1,5-a]pyridin-7-yl)-N-(3,5-difluoro-2-isobutoxybenzyl)-2-methylnicotinamide] | < 20 |  |  |  | 20 to 200
[2H]C([2H])([2H])[C@H](NC(=O)c1cc(-c2ccn3nc(N)nc3c2)cnc1C)c1cc(C(F)(F)F)ccc1F [Example 302, (S)-5-(2-amino-[1,2,4]triazolo[1,5-a]pyridin-7-yl)-N-(1-(2-fluoro-5-(trifluoromethyl)phenyl)ethyl-2,2,2-H3)-2-methylnicotinamide] | < 20 |  |  |  | 20 to 200
